Laboratory results as given in patent US10562905B2, “Carboxy tetrahydropyrazolopyrazine compounds for the treatment of infectious diseases” (Hoffmann-La Roche Inc., priority 2016, dated 2020).

System: HBV
Test: HBV inhibition assay in HepG2.2.15 cells (qPCR of extracellular HBV DNA)
Type: cell-based, Hepatitis B virus
Conditions: extracellular HBV DNA by qPCR, five days after compound treatment
From the text: HepG2.2.15 is a stably-transfected cell line containing the HBV genome. It is derived from the hepatoblastoma cell line Hep G2 (American Type Culture Collection, ATCC® HB-8065™) by the published procedures described in reference: MA Selles et al. Proc. Natl. Acad. Sci. USA 1987, 84, 1005-1009. The cell line was maintained in Dulbecco's modified Eagle's medium and nutrient mixture F-12 (DMEM/F-12, Gibco, Cat.#: 11320-033) supplemented with 10% fetal bovine serum (Gibco, Cat.#:10099-141), 100 U/mL penicillin, 100 μg/mL streptomycin (Gibco, Cat.#:15140-122), and 0.3 mg/mL of G418 Sulfate (Gibco, Cat.#: 10131-027).
HepG2.2.15 cells were seeded into 96-well plates at a density of 3×10^4 cells per well in culture media of 100 μL DMEM/F-12 supplemented with 2.5% fetal bovine serum, 100 U/mL penicillin, 100 μg/mL streptomycin and cultured overnight at 37° C. The test compounds were serially half-log diluted in DMSO, then diluted 100 times in culture media. 100 μL culture media containing diluted compounds were added into the plates to reach 0.5% final concentration of DMSO in every well. Five days after compound treatment, culture supernatant was collected for further analysis.
For quantitative PCR detection of extracellular HBV DNA, culture supernatant was processed by 500 μg/mL Proteinase K (Sigma, Cat.#:P2308) digestion at 50° C. for 1 hour. After heat inactivation of the enzyme at 95° C. for 15 minutes, the samples were subjected to HBV DNA quantification by qPCR. The effective compound concentration at which HBV replication was inhibited by 50% (EC50) was determined.

[1] = Hepatitis B virus, HepG2.2.15, 120 h

| Compound | EC50 [1] [nM] | EC50 [nM] |
| --- | --- | --- |
| C[C@H]1Cn2ncc(N3CC(N(C)CC(=O)O)CC3=O)c2CN1C(=O)Nc1cc(F)c(F)c(F)c1 (stereo partly drawn) [Example 3, 2-[Methyl-[1-[(6S)-6-methyl-5-[(3,4,5-trifluorophenyl)carbamoyl]-6,7-dihydro-4H-pyrazolo[1,5-a]pyrazin-3-yl]-5-oxo-pyrrolidin-3-yl]amino]acetic acid] | 139 | – |
| C[C@H]1Cn2ncc(N3CC(N4CCC(C(=O)O)C4)CC3=O)c2CN1C(=O)Nc1cc(F)c(F)c(F)c1 (stereo partly drawn) [Example 5, 1-[1-[(6S)-6-methyl-5-[(3,4,5-trifluorophenyl)carbamoyl]-6,7-dihydro-4H-pyrazolo[1,5-a]pyrazin-3-yl]-5-oxo-pyrrolidin-3-yl]pyrrolidine-3-carboxylic acid] | 240 | – |
| C[C@H]1Cn2ncc(N3C(=O)CC(N4CCC[C@H]4C(=O)O)[C@@H]3C)c2CN1C(=O)Nc1cc(F)c(F)c(F)c1 (stereo partly drawn) [Example 2, (2S)-1-[(2S)-2-methyl-1-[(6S)-6-methyl-5-[(3,4,5-trifluorophenyl)carbamoyl]-6,7-dihydro-4H-pyrazolo[1,5-a]pyrazin-3-yl]-5-oxo-pyrrolidin-3-yl]pyrrolidine-2-carboxylic acid] | 98 | – |
| C[C@H]1Cn2ncc(N3CC(c4ncccc4C(=O)O)CC3=O)c2CN1C(=O)Nc1cc(F)c(F)c(F)c1 (stereo partly drawn) [Example 18, 2-[1-[(6S)-6-methyl-5-[(3,4,5-trifluorophenyl)carbamoyl]-6,7-dihydro-4H-pyrazolo[1,5-a]pyrazin-3-yl]-5-oxo-pyrrolidin-3-yl]pyridine-3-carboxylic acid] | 102 | – |
| C[C@H]1Cn2ncc(N3CC(c4ccccc4C(=O)O)CC3=O)c2CN1C(=O)Nc1cc(F)c(F)c(F)c1 (stereo partly drawn) [Example 7, 2-[1-[(6S)-6-methyl-5-[(3,4,5-trifluorophenyl)carbamoyl]-6,7-dihydro-4H-pyrazolo[1,5-a]pyrazin-3-yl]-5-oxo-pyrrolidin-3-yl]benzoic acid] | 22 | – |
| C[C@H]1Cn2ncc(N3CC4COCC(C3=O)N4CC(=O)O)c2CN1C(=O)Nc1cc(F)c(F)c(F)c1 (stereo partly drawn) [Example 13, 2-[7-[(6S)-6-methyl-5-[(3,4,5-trifluorophenyl)carbamoyl]-6,7-dihydro-4H-pyrazolo[1,5-a]pyrazin-3-yl]-6-oxo-3-oxa-7,9-diazabicyclo[3.3.1]nonan-9-yl]acetic acid] | 99 | – |
| C[C@H]1Cn2ncc(N3CC(c4cccc(C(=O)O)c4)CC3=O)c2CN1C(=O)Nc1cc(F)c(F)c(F)c1 (stereo partly drawn) [Example 8, 3-[1-[(6S)-6-methyl-5-[(3,4,5-trifluorophenyl)carbamoyl]-6,7-dihydro-4H-pyrazolo[1,5-a]pyrazin-3-yl]-5-oxo-pyrrolidin-3-yl]benzoic acid] | 89 | – |
| C[C@H]1[C@H](C)n2ncc(N3CC(N4CCC[C@H]4C(=O)O)CC3=O)c2CN1C(=O)Nc1cc(F)c(F)c(F)c1 (stereo partly drawn) [Example 6-2, (2S)-1-[1-[(6S,7S)-6,7-dimethyl-5-[(3,4,5-trifluorophenyl)carbamoyl]-6,7-dihydro-4H-pyrazolo[1,5-a]pyrazin-3-yl]-5-oxo-pyrrolidin-3-yl]pyrrolidine-2-carboxylic acid] | – | 99 |
| C[C@H]1Cn2ncc(N3CC(c4cccc(F)c4C(=O)O)CC3=O)c2CN1C(=O)Nc1cc(F)c(F)c(F)c1 (single isomer, unassigned) [Example 11-1] | – | 312 |
| C[C@H]1[C@H](C)n2ncc(N3CC(N4CCC[C@H]4C(=O)O)CC3=O)c2CN1C(=O)Nc1cc(F)c(F)c(F)c1 (stereo partly drawn) [Example 6-1, (2S)-1-[1-[(6S,7S)-6,7-dimethyl-5-[(3,4,5-trifluorophenyl)carbamoyl]-6,7-dihydro-4H-pyrazolo[1,5-a]pyrazin-3-yl]-5-oxo-pyrrolidin-3-yl]pyrrolidine-2-carboxylic acid] | 112 | – |
| C[C@H]1Cn2ncc(N3CC(c4ccccc4C(=O)O)CC3=O)c2CN1C(=O)Nc1cc(F)c(F)c(F)c1 (single isomer, unassigned) [Example 7-1] | – | 34 |
| C[C@H]1Cn2ncc(N3CC(Nc4ccccc4C(=O)O)CC3=O)c2CN1C(=O)Nc1cc(F)c(F)c(F)c1 (stereo partly drawn) [Example 12, 2-[[1-[(6S)-6-methyl-5-[(3,4,5-trifluorophenyl)carbamoyl]-6,7-dihydro-4H-pyrazolo[1,5-a]pyrazin-3-yl]-5-oxo-pyrrolidin-3-yl]amino]benzoic acid] | 288 | – |
| C[C@H]1Cn2ncc(N3CC(c4ccc(F)cc4C(=O)O)CC3=O)c2CN1C(=O)Nc1cc(F)c(F)c(F)c1 (stereo partly drawn) [Example 15, 5-Fluoro-2-[1-[(6S)-6-methyl-5-[(3,4,5-trifluorophenyl)carbamoyl]-6,7-dihydro-4H-pyrazolo[1,5-a]pyrazin-3-yl]-5-oxo-pyrrolidin-3-yl]benzoic acid] | 57 | – |
| C[C@H]1Cn2ncc(N3CC(c4c(F)cccc4C(=O)O)CC3=O)c2CN1C(=O)Nc1cc(F)c(F)c(F)c1 (single isomer, unassigned) [Example 10-2] | – | 17 |
| C[C@H]1Cn2ncc(N3CC(c4cc(F)ccc4C(=O)O)CC3=O)c2CN1C(=O)Nc1cc(F)c(F)c(F)c1 (stereo partly drawn) [Example 14, 4-Fluoro-2-[1-[(6S)-6-methyl-5-[(3,4,5-trifluorophenyl)carbamoyl]-6,7-dihydro-4H-pyrazolo[1,5-a]pyrazin-3-yl]-5-oxo-pyrrolidin-3-yl]benzoic acid] | 30 | – |
| C[C@H]1Cn2ncc(N3CC(c4c(F)cccc4C(=O)O)CC3=O)c2CN1C(=O)Nc1cc(F)c(F)c(F)c1 (single isomer, unassigned) [Example 10-1] | – | 106 |
| C[C@H]1Cn2ncc(N3C(=O)CC(N4CCC[C@@H]4C(=O)O)[C@@H]3C)c2CN1C(=O)Nc1cc(F)c(F)c(F)c1 (stereo partly drawn) [Example 4, (2R)-1-[(2S)-2-methyl-1-[(6S)-6-methyl-5-[(3,4,5-trifluorophenyl)carbamoyl]-6,7-dihydro-4H-pyrazolo[1,5-a]pyrazin-3-yl]-5-oxo-pyrrolidin-3-yl]pyrrolidine-2-carboxylic acid] | 105 | – |
| C[C@H]1Cn2ncc(N3CC(c4ccccc4C(=O)O)CC3=O)c2CN1C(=O)Nc1cc(F)c(F)c(F)c1 (single isomer, unassigned) [Example 7-2] | – | 14 |
| C[C@H]1Cn2ncc(N3CC(c4cccc(F)c4C(=O)O)CC3=O)c2CN1C(=O)Nc1cc(F)c(F)c(F)c1 (single isomer, unassigned) [Example 11-2] | – | 77 |
| C[C@H]1Cn2ncc(N3CC(c4ccc(C(=O)O)cc4)CC3=O)c2CN1C(=O)Nc1cc(F)c(F)c(F)c1 (stereo partly drawn) [Example 16, 4-[1-[(6S)-6-methyl-5-[(3,4,5-trifluorophenyl)carbamoyl]-6,7-dihydro-4H-pyrazolo[1,5-a]pyrazin-3-yl]-5-oxo-pyrrolidin-3-yl]benzoic acid] | 228 | – |
| C[C@H]1Cn2ncc(N3CC(N4CCC[C@@H]4C(=O)O)CC3=O)c2CN1C(=O)Nc1cc(F)c(F)c(F)c1 (stereo partly drawn) [Example 9, (2R)-1-[1-[(6S)-6-methyl-5-[(3,4,5-trifluorophenyl)carbamoyl]-6,7-dihydro-4H-pyrazolo[1,5-a]pyrazin-3-yl]-5-oxo-pyrrolidin-3-yl]pyrrolidine-2-carboxylic acid] | 124 | – |
| C[C@H]1Cn2ncc(N3CC(N4CCC[C@H]4C(=O)O)CC3=O)c2CN1C(=O)Nc1cc(F)c(F)c(F)c1 (stereo partly drawn) [Example 1, (2S)-1-[1-[(6S)-6-methyl-5-[(3,4,5-trifluorophenyl)carbamoyl]-6,7-dihydro-4H-pyrazolo[1,5-a]pyrazin-3-yl]-5-oxo-pyrrolidin-3-yl]pyrrolidine-2-carboxylic acid] | 126 | – |
